Eleven compounds from ChEMBL document CHEMBL1138908, “Design and structure-activity relationship of 3-benzimidazol-2-yl-1H-indazoles as inhibitors of receptor tyrosine kinases” (Bioorg Med Chem Lett, 2006) can be followed below.

What is called IC50 is the point on the concentration scale where inhibition reaches its midpoint. Higher therefore signals weaker potency. Broadly, the EC50 is the midpoint of the concentration-response curve. Low readings indicate greater potency, high ones weaker potency. As a reminder, the bioavailability is the share of a dose that reaches the circulation, judged against a reference dose that is usually intravenous. The term clearance denotes the volume of plasma or blood freed of the substance per unit of time. Read a high clearance as a high capacity for elimination. One may read the AUC as the area under the concentration-time curve, a measure of exposure. Read a low AUC as less exposure. Broadly, the half-life is how long it takes for the measured level to halve.

Sequence of Vascular endothelial growth factor receptor 2 (P35918 whole entry): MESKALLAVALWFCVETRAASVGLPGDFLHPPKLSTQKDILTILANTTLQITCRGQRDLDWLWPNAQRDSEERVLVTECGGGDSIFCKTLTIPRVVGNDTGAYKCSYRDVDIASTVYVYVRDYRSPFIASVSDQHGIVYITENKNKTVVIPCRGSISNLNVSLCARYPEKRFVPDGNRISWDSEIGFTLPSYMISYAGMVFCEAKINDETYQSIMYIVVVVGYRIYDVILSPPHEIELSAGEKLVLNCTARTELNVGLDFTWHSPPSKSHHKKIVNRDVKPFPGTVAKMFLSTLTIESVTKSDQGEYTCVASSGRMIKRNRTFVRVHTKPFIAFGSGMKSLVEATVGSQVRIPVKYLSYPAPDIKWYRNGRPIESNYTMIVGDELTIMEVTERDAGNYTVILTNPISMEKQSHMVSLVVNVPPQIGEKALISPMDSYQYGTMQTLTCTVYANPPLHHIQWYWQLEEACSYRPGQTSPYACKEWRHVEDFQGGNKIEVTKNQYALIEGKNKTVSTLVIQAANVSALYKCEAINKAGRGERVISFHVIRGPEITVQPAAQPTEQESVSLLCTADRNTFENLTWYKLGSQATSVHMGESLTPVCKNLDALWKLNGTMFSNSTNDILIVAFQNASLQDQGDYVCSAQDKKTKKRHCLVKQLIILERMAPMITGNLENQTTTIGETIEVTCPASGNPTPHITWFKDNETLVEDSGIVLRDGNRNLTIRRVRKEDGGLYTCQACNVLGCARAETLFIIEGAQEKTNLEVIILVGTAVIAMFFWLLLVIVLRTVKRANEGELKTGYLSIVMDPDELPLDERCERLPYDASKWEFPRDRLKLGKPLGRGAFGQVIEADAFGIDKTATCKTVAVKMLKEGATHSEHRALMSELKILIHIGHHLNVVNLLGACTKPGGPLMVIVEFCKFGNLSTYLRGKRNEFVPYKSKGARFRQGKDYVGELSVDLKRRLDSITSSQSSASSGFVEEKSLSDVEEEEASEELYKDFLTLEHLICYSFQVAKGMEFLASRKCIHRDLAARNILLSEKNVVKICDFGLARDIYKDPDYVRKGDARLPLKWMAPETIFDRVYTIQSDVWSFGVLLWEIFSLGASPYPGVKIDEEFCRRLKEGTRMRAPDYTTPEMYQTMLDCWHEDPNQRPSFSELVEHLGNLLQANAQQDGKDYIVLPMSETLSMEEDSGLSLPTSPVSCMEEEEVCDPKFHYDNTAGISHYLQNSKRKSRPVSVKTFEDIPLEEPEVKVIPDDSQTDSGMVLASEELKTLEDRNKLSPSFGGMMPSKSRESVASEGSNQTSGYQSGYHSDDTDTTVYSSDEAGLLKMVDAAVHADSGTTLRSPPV
Sequence of Fibroblast growth factor receptor 1 (P11362 whole entry): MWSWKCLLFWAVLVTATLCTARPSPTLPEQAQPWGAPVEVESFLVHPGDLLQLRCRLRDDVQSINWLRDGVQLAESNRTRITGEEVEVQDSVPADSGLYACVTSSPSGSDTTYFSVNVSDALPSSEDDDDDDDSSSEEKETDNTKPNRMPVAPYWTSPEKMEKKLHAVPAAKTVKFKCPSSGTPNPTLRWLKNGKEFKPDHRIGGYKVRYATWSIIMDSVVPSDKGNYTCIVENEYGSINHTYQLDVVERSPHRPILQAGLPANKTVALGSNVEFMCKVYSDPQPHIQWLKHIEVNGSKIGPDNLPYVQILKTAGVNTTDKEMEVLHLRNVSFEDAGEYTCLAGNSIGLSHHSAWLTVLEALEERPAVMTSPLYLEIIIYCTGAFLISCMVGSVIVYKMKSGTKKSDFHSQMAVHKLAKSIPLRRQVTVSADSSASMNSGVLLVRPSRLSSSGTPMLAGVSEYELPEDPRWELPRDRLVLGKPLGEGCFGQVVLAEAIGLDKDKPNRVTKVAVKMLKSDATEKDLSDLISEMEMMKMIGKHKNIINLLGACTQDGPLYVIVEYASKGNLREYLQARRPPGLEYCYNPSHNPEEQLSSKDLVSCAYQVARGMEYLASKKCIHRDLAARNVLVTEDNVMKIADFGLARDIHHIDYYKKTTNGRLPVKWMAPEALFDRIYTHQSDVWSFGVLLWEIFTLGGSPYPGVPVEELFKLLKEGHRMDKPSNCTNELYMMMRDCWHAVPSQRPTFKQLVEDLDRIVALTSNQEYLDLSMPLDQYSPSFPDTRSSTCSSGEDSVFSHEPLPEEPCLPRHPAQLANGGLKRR
Sequence of Vascular endothelial growth factor receptor 1 (P17948 whole entry): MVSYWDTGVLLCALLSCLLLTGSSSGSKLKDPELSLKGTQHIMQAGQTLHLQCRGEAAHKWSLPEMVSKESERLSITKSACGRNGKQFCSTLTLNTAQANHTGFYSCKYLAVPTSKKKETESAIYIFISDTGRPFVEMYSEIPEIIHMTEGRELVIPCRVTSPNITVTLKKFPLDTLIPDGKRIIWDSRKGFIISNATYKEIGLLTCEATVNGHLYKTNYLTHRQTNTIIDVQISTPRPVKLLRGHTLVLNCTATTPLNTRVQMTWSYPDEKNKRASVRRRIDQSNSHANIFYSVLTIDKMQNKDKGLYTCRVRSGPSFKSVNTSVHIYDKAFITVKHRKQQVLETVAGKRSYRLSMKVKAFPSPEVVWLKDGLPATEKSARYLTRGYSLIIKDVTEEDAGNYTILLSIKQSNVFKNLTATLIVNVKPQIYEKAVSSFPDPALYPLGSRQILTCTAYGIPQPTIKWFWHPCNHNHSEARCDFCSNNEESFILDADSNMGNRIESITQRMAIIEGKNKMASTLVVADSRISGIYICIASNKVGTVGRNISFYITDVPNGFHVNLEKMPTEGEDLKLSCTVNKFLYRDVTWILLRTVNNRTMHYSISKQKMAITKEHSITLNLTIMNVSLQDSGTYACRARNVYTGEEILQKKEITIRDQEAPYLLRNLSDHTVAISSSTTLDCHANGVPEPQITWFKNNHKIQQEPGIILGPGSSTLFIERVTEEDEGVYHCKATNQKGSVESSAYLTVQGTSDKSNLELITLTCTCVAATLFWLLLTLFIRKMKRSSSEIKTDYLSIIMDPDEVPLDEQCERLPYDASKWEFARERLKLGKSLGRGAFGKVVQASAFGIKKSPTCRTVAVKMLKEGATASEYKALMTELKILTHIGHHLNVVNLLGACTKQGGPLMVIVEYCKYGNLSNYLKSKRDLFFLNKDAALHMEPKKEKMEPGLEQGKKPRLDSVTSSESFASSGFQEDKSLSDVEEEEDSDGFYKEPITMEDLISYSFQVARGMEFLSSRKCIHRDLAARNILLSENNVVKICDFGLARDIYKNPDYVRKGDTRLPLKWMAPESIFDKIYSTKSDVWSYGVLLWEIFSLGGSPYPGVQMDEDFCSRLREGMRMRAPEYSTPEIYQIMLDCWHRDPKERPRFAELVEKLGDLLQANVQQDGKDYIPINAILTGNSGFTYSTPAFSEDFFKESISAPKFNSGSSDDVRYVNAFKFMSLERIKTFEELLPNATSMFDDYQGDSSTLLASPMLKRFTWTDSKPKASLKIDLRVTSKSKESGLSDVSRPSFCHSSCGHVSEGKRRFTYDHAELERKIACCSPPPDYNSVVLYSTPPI

The first series concerns the target Vascular endothelial growth factor receptor 2 (Mus musculus, UniProt P35918). Kind of series: Inhibition of VEGFR2.
Conditions: not given
For `CN1CCN(c2ccc3[nH]c(-c4[nH]nc5ccccc45)nc3c2)CC1`, the IC50 amounted to 130 nM.
`c1ccc2c(-c3nc4cc(OCCCN5CCCC5)ccc4[nH]3)[nH]nc2c1` showed an IC50 of 170 nM.
In turn, `CN1CCN(Cc2ccc3[nH]c(-c4[nH]nc5ccccc45)nc3c2)CC1` showed an IC50 of 260 nM.
For `c1ccc(COc2ccc3c(-c4nc5ccc(N6CCC(N7CCCCC7)CC6)cc5[nH]4)n[nH]c3c2)cc1`, the IC50 was 21 nM.
For `c1ccc2c(-c3nc4ccc(N5CCOCC5)cc4[nH]3)n[nH]c2c1`, the IC50 came out at 160 nM.
On the same count and under the same terms, in the case of `c1ccc(Oc2ccc3n[nH]c(-c4nc5cc(N6CCC(N7CCCCC7)CC6)ccc5[nH]4)c3c2)cc1` it was 44 nM.
`c1ccc2c(-c3nc4c(N5CCOCC5)cccc4[nH]3)n[nH]c2c1`: the IC50 is above 3000 nM.
In turn, `Fc1cccc2c(-c3nc4ccc(N5CCC(N6CCCCC6)CC5)cc4[nH]3)n[nH]c12` returned an IC50 of 330 nM.
`Fc1ccc2c(-c3nc4cc(N5CCC(N6CCCCC6)CC5)ccc4[nH]3)[nH]nc2c1` came in with an IC50 of 28 nM.
In turn, `CC(C)(C)NC(=O)Nc1cccc2c(-c3nc4cc(N5CCC(N6CCCCC6)CC5)ccc4[nH]3)[nH]nc12` yielded an IC50 above 3000 nM.
On to `CN1CCC(N(C)c2ccc3nc(-c4n[nH]c5ccccc45)[nH]c3c2)CC1`, for which the IC50 came out at 150 nM.

The next series concerns the target Vascular endothelial growth factor receptor 1 (Homo sapiens, UniProt P17948). Kind of series: Inhibition of VEGFR1.
Conditions: not given
`CN1CCN(c2ccc3[nH]c(-c4[nH]nc5ccccc45)nc3c2)CC1` yielded an IC50 of 44 nM.
Turning to `c1ccc2c(-c3nc4cc(OCCCN5CCCC5)ccc4[nH]3)[nH]nc2c1`, the IC50 was 48 nM.
`CN1CCN(Cc2ccc3[nH]c(-c4[nH]nc5ccccc45)nc3c2)CC1` displayed an IC50 of 170 nM.
Compound `c1ccc(COc2ccc3c(-c4nc5ccc(N6CCC(N7CCCCC7)CC6)cc5[nH]4)n[nH]c3c2)cc1` registered an IC50 of 11 nM.
Compound `c1ccc2c(-c3nc4ccc(N5CCOCC5)cc4[nH]3)n[nH]c2c1` gave a concentration for half-maximal inhibition (IC50) of 50 nM.
Compound `c1ccc(Oc2ccc3n[nH]c(-c4nc5cc(N6CCC(N7CCCCC7)CC6)ccc5[nH]4)c3c2)cc1` showed an IC50 of 28 nM.
Still for that read-out and setting: in the case of `c1ccc2c(-c3nc4c(N5CCOCC5)cccc4[nH]3)n[nH]c2c1` it was above 3000 nM; in that of `Fc1cccc2c(-c3nc4ccc(N5CCC(N6CCCCC6)CC5)cc4[nH]3)n[nH]c12`, 150 nM; in that of `Fc1ccc2c(-c3nc4cc(N5CCC(N6CCCCC6)CC5)ccc4[nH]3)[nH]nc2c1`, 10 nM.
On to `CC(C)(C)NC(=O)Nc1cccc2c(-c3nc4cc(N5CCC(N6CCCCC6)CC5)ccc4[nH]3)[nH]nc12`, for which the IC50 is above 3000 nM.
`CN1CCC(N(C)c2ccc3nc(-c4n[nH]c5ccccc45)[nH]c3c2)CC1` returned an IC50 of 8 nM.

In the next series the target is Platelet-derived growth factor receptor beta (Mus musculus, UniProt P05622). Kind of series: Inhibition of PDGFRbeta.
Sequence of Platelet-derived growth factor receptor beta (P05622 whole entry): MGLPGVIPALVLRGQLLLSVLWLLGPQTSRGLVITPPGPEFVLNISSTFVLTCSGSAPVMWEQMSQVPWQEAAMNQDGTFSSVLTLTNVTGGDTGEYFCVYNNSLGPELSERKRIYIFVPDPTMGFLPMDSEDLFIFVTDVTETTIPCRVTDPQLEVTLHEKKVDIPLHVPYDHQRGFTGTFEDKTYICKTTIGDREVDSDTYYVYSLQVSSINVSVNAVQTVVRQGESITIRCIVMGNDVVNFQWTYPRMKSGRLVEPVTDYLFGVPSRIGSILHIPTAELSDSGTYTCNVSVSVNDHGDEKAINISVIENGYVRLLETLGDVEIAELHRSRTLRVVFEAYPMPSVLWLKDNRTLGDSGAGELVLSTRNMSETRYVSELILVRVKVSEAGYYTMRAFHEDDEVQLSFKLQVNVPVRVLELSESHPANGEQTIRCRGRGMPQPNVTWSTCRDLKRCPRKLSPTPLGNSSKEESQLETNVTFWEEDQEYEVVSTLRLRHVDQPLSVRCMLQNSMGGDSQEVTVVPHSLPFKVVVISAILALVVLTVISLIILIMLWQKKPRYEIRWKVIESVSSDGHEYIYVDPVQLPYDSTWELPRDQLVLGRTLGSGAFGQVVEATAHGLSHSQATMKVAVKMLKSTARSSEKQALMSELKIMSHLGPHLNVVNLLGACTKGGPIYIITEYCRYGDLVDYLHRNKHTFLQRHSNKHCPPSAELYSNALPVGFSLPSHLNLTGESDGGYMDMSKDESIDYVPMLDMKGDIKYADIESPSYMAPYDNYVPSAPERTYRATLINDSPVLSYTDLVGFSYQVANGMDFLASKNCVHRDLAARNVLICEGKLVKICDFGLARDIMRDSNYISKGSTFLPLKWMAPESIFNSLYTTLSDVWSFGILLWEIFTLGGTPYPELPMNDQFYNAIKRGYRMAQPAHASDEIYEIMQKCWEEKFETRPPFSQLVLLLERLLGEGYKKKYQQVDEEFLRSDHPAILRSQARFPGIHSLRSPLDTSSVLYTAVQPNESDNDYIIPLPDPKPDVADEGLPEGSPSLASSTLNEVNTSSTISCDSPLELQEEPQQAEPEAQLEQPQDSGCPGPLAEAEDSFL
Conditions: not given
`CN1CCN(c2ccc3[nH]c(-c4[nH]nc5ccccc45)nc3c2)CC1` showed a concentration for half-maximal inhibition (IC50) of 170 nM.
Compound `c1ccc2c(-c3nc4cc(OCCCN5CCCC5)ccc4[nH]3)[nH]nc2c1` registered an IC50 of 440 nM.
Regarding `CN1CCN(Cc2ccc3[nH]c(-c4[nH]nc5ccccc45)nc3c2)CC1`, it took 1900 nM to reach half-maximal inhibition (IC50).
Still for that read-out and setting: the figure for `c1ccc(COc2ccc3c(-c4nc5ccc(N6CCC(N7CCCCC7)CC6)cc5[nH]4)n[nH]c3c2)cc1` is 180 nM.
`c1ccc2c(-c3nc4ccc(N5CCOCC5)cc4[nH]3)n[nH]c2c1`: the IC50 came out at 260 nM.
With `c1ccc(Oc2ccc3n[nH]c(-c4nc5cc(N6CCC(N7CCCCC7)CC6)ccc5[nH]4)c3c2)cc1`, the IC50 worked out at 8 nM.
Consider `c1ccc2c(-c3nc4c(N5CCOCC5)cccc4[nH]3)n[nH]c2c1`, for which the IC50 was above 3000 nM.
In turn, `Fc1cccc2c(-c3nc4ccc(N5CCC(N6CCCCC6)CC5)cc4[nH]3)n[nH]c12` showed an IC50 of 2300 nM.
Still for that read-out and setting: in the case of `Fc1ccc2c(-c3nc4cc(N5CCC(N6CCCCC6)CC5)ccc4[nH]3)[nH]nc2c1` it was 310 nM; in that of `CC(C)(C)NC(=O)Nc1cccc2c(-c3nc4cc(N5CCC(N6CCCCC6)CC5)ccc4[nH]3)[nH]nc12`, above 3000 nM.
The compound `CN1CCC(N(C)c2ccc3nc(-c4n[nH]c5ccccc45)[nH]c3c2)CC1` came in with a half-maximal inhibitory concentration (IC50) of 500 nM.

A further series addresses Fibroblast growth factor receptor 1 (Homo sapiens, UniProt P11362). Kind of series: Inhibition of FGFR1.
Conditions: not given
Consider `CN1CCN(c2ccc3[nH]c(-c4[nH]nc5ccccc45)nc3c2)CC1`, for which inhibition was half-maximal at 82 nM (IC50).
On to `c1ccc2c(-c3nc4cc(OCCCN5CCCC5)ccc4[nH]3)[nH]nc2c1`, for which the IC50 was 98 nM.
On the same count and under the same terms, in the case of `CN1CCN(Cc2ccc3[nH]c(-c4[nH]nc5ccccc45)nc3c2)CC1` it was 270 nM.
`c1ccc(COc2ccc3c(-c4nc5ccc(N6CCC(N7CCCCC7)CC6)cc5[nH]4)n[nH]c3c2)cc1`: the IC50 was 23 nM.
`c1ccc2c(-c3nc4ccc(N5CCOCC5)cc4[nH]3)n[nH]c2c1` came in with an IC50 of 100 nM.
With `c1ccc(Oc2ccc3n[nH]c(-c4nc5cc(N6CCC(N7CCCCC7)CC6)ccc5[nH]4)c3c2)cc1`, the IC50 is 15 nM.
On the same count and under the same terms, the figure for `c1ccc2c(-c3nc4c(N5CCOCC5)cccc4[nH]3)n[nH]c2c1` is 830 nM; for `Fc1cccc2c(-c3nc4ccc(N5CCC(N6CCCCC6)CC5)cc4[nH]3)n[nH]c12` it is 200 nM; for `Fc1ccc2c(-c3nc4cc(N5CCC(N6CCCCC6)CC5)ccc4[nH]3)[nH]nc2c1` it is 28 nM.
On the same count and under the same terms, the figure for `CC(C)(C)NC(=O)Nc1cccc2c(-c3nc4cc(N5CCC(N6CCCCC6)CC5)ccc4[nH]3)[nH]nc12` is above 3000 nM; for `CN1CCC(N(C)c2ccc3nc(-c4n[nH]c5ccccc45)[nH]c3c2)CC1` it is 18 nM.

In a further series the test system is HMEC. Kind of series: Inhibition of VEGF-mediated proliferation of HMVEC. Type of series: functional, cell-based. To be noted: Homo sapiens.
`CN1CCN(c2ccc3[nH]c(-c4[nH]nc5ccccc45)nc3c2)CC1` displayed a half-maximal effective concentration (EC50) of 97 nM.
In turn, `c1ccc2c(-c3nc4cc(OCCCN5CCCC5)ccc4[nH]3)[nH]nc2c1` registered an EC50 of 270 nM.
On to `CN1CCN(Cc2ccc3[nH]c(-c4[nH]nc5ccccc45)nc3c2)CC1`, for which the midpoint of the response, the EC50, lay at 300 nM.
In turn, `c1ccc(COc2ccc3c(-c4nc5ccc(N6CCC(N7CCCCC7)CC6)cc5[nH]4)n[nH]c3c2)cc1` yielded a half-maximal effective concentration (EC50) of 220 nM.
Same read-out and setting: the figure for `c1ccc2c(-c3nc4ccc(N5CCOCC5)cc4[nH]3)n[nH]c2c1` is 160 nM; for `c1ccc(Oc2ccc3n[nH]c(-c4nc5cc(N6CCC(N7CCCCC7)CC6)ccc5[nH]4)c3c2)cc1` it is 80 nM; for `c1ccc2c(-c3nc4c(N5CCOCC5)cccc4[nH]3)n[nH]c2c1` it is above 10000 nM.
Same read-out and setting: the figure for `Fc1cccc2c(-c3nc4ccc(N5CCC(N6CCCCC6)CC5)cc4[nH]3)n[nH]c12` is 1400 nM.
`Fc1ccc2c(-c3nc4cc(N5CCC(N6CCCCC6)CC5)ccc4[nH]3)[nH]nc2c1` registered an EC50 of 33 nM.
Compound `CN1CCC(N(C)c2ccc3nc(-c4n[nH]c5ccccc45)[nH]c3c2)CC1` yielded a concentration giving a half-maximal response (EC50) of 220 nM.

System in a further series: not listed separately
Briefly: Oral bioavailability in mouse. It is filed as ADME, organism-based. The following applies: in vivo.
In the case of `Fc1ccc2c(-c3nc4cc(N5CCC(N6CCCCC6)CC5)ccc4[nH]3)[nH]nc2c1`, the bioavailability amounted to 62%.

System in another series: not listed separately
Briefly: Clearance in mouse. It is filed as ADME, organism-based. To be noted: in vivo.
For `Fc1ccc2c(-c3nc4cc(N5CCC(N6CCCCC6)CC5)ccc4[nH]3)[nH]nc2c1`, the clearance amounted to 71 mL/min/kg.

System in another series: not listed separately
Kind of series: Volume of distribution in mouse. It is filed as ADME, organism-based. The following applies: in vivo, read-out: Vdss.
With `Fc1ccc2c(-c3nc4cc(N5CCC(N6CCCCC6)CC5)ccc4[nH]3)[nH]nc2c1`, the Vd was 24.8 L/kg.

For the next series, the species on record is Mus musculus. Kind of series: Area under curve in mouse. Type of series: ADME, organism-based. The following applies: in vivo.
`Fc1ccc2c(-c3nc4cc(N5CCC(N6CCCCC6)CC5)ccc4[nH]3)[nH]nc2c1` displayed an AUC of 170 µg·min/mL.

A further series relates to KM12. Kind of series: Antitumor activity against human KM12L4a cell line xenografted in nude mice at 100 mg/kg, after 14 days. Type of series: functional. The following applies: Mus musculus, KM12, 336 h, read-out: TGI. A general note: Xenograft models place foreign cells or tissue in a host animal.
For `Fc1ccc2c(-c3nc4cc(N5CCC(N6CCCCC6)CC5)ccc4[nH]3)[nH]nc2c1`, the inhibition in vivo at 100 mg/kg amounted to 88%.

System in the next series: not listed separately
Kind of series: Half life in mouse. The following applies: in vivo. It is filed as ADME, organism-based.
Regarding `Fc1ccc2c(-c3nc4cc(N5CCC(N6CCCCC6)CC5)ccc4[nH]3)[nH]nc2c1`, the half-life amounted to 253 min.

The test system of another series is KM12. Kind of series: Antitumor activity against human KM12L4a cell line xenografted in nude mice at 30 mg/kg, after 14 days. Type of series: functional. To be noted: Mus musculus, KM12, 336 h, read-out: TGI.
For `Fc1ccc2c(-c3nc4cc(N5CCC(N6CCCCC6)CC5)ccc4[nH]3)[nH]nc2c1`, the inhibition in vivo at 30 mg/kg is 50%.
